Measurements as given in the supplement of paper PMC10307832.

Experiments:
Experiment in all cases: relative viability (nuclei count vs DMSO), 5 days (fraction); higher = more cells survive
[1] = compound: CC1=CC=C(C=C1)C(=O)CN2C3=C(CCCC3)SC2=N [Pifithrin_alpha] + C[C@]1(O)C[C@@H](c2nc(-c3ccc4ccc(-c5ccccc5)nc4c3)c3c(N)nccn32)C1 [Linsitinib] (partner 1 µM)
Summary of the method: (§1)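 Five library-drug doses in √10 steps were combined with a fixed anchor-drug dose, or a single drug was given alone, by pin tool to lung cancer cell lines in 1536-well plates the day after seeding. Nuclei were stained and counted after 5 days. Relative viability is the nuclei count in treated wells over that in vehicle wells, taken as the median of duplicate plates.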

Bemcentinib + OSI-027 = compound: Nc1nc(Nc2ccc3c(c2)CC[C@@H](N2CCCC2)CC3)nn1-c1cc2c(nn1)-c1ccccc1CCC2 [Bemcentinib] + COc1cccc2cc(-c3nc([C@H]4CC[C@H](C(=O)O)CC4)n4ncnc(N)c34)[nH]c12 [OSI-027] (partner 0.5 µM)
Summary of the method: as §1

Axitinib + Pemetrexed = compound: CNC(=O)c1ccccc1Sc1ccc2c(/C=C/c3ccccn3)n[nH]c2c1 [Axitinib] + Nc1nc2[nH]cc(CCc3ccc(C(=O)N[C@@H](CCC(=O)O)C(=O)O)cc3)c2c(=O)[nH]1 [Pemetrexed] (partner 0.2 µM)
Summary of the method: as §1

[2] = compound: CC1=CC=C(C=C1)C(=O)CN2C3=C(CCCC3)SC2=N [Pifithrin_alpha] + CC(C)C[C@H](NC(=O)[C@H](Cc1ccccc1)NC(=O)c1cnccn1)B(O)O [Bortezomib] (partner 0.002 µM)
Summary of the method: as §1

Cell Line | relative viability ([1]; first compound 1 µM) | relative viability ([1]; first compound 3.162 µM) | relative viability ([1]; first compound 10 µM) | relative viability ([1]; first compound 100 µM) | relative viability (Bemcentinib + OSI-027; first compound 0.04 µM) | relative viability (Bemcentinib + OSI-027; first compound 0.1265 µM) | relative viability (Bemcentinib + OSI-027; first compound 0.4 µM) | relative viability (Bemcentinib + OSI-027; first compound 1.265 µM) | relative viability (Bemcentinib + OSI-027; first compound 4 µM) | relative viability (Axitinib + Pemetrexed; first compound 0.005 µM) | relative viability (Axitinib + Pemetrexed; first compound 0.01581 µM) | relative viability (Axitinib + Pemetrexed; first compound 0.05 µM) | relative viability (Axitinib + Pemetrexed; first compound 0.1581 µM) | relative viability (Axitinib + Pemetrexed; first compound 0.5 µM) | relative viability ([2]; first compound 1 µM) | relative viability ([2]; first compound 3.162 µM) | relative viability ([2]; first compound 10 µM) | relative viability ([2]; first compound 100 µM) | relative viability ([1]; first compound 31.62 µM) | relative viability ([2]; first compound 31.62 µM)
NCI-H460 | 0.764 | 0.795 | 0.906 | 0.563 | 0.73 | 1.2 | 0.827 | 0.686 | 0.851 | 0.0553 | 0.0645 | 0.0676 | 0.0593 | 0.0611 | 1.51 | 1.14 | 0.661 | 0.438 |  | 
NCI-H520 | 1.07 | 1.07 | 0.946 | 1.12 | 0.237 | 0.24 | 0.262 | 0.247 | 0.258 | 0.68 | 0.698 | 0.74 | 0.681 | 0.716 | 0.64 | 0.771 | 0.567 | 0.739 | 0.623 | 0.386
NCI-H596 | 1.04 | 1.2 | 1.21 | 1.16 | 0.739 | 0.665 | 0.707 | 0.757 | 0.802 | 0.517 | 0.483 | 0.676 | 0.533 | 0.433 | 0.969 | 1.1 | 1.23 | 1.06 | 1.11 | 1.03
NCI-H647 | 1.27 | 1.2 | 1.02 | 0.748 | 0.696 | 0.799 | 0.637 | 0.666 | 0.649 | 0.21 | 0.149 | 0.2 | 0.184 | 0.209 | 0.992 | 0.966 | 0.706 | 0.736 |  | 
NCI-H661 | 0.669 | 0.616 | 0.565 | 0.598 | 0.716 | 0.719 | 0.762 | 0.775 | 0.745 | 0.885 | 0.916 | 0.902 | 0.942 | 0.956 | 0.784 | 0.82 | 0.909 | 1.02 | 0.68 | 0.925
NCI-H838 | 0.96 | 0.888 | 0.853 | 0.782 | 0.38 | 0.434 | 0.371 | 0.442 | 0.372 | 0.243 | 0.25 | 0.247 | 0.237 | 0.25 | 0.786 | 0.628 | 0.599 | 0.62 | 0.735 | 0.626
NCI-H1355 | 0.753 | 0.666 | 0.599 | 0.599 | 0.379 | 0.412 | 0.46 | 0.399 | 0.44 | 1.01 | 1.03 | 1.09 | 1.03 | 1.01 | 1.17 | 1.04 | 0.954 | 1.03 | 0.605 | 0.789
NCI-H1437 | 1.14 | 1.24 | 0.893 | 0.54 | 0.884 | 0.845 | 0.995 | 0.961 | 0.915 | 0.321 | 0.325 | 0.324 | 0.336 | 0.324 | 0.567 | 0.363 | 0.401 | 0.281 | 0.564 | 0.319
